Each structure is given as a SMILES string. The source made the active and inactive calls.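 The calls were made as follows: active = IC50 at or below 20 µM in the dose response; inactive = the rest.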

One may read the IC50 as the point on the concentration scale where inhibition reaches its midpoint.

The test deals with HL-1 cardiomyocytes, H2O2 protection, ATPLite, 2 h. The test can be described thus: protection of HL-1 cells from peroxide death, SAR follow-up, hydrogen peroxide, ATP luminescence (AID 623872).
`COc1ccc(NC(=O)CN(C)C(=O)c2cc(-c3cccs3)nn2-c2ccccc2)cc1`: the IC50 was > 79 µM (inactive).

`NC(=O)c1nsc(C(=O)N(Cc2ccccc2)C(C(=O)NCc2ccc(F)cc2)c2ccc(O)cc2)c1N` (stereo not given): the IC50 was > 79 µM (inactive).

For `COc1ccc2cc(C(=O)N3CCN(S(=O)(=O)c4cc(C)ccc4C)CC3)c(C)nc2c1`, the IC50 was > 79 µM (inactive).

With `Cc1ccc(-c2[nH]c3ccccc3c2C(=O)C(=O)N(C)C)cc1`, the IC50 is > 79 µM (inactive).

With `COc1ccc(-c2cc(C(=O)N(C)C)c3ccccc3n2)cc1OC`, the IC50 is > 79 µM (inactive).

In the case of `COCCn1c(SC(C(=O)Nc2cc(C)ccc2C)c2ccccc2)nc2ccccc2c1=O` (stereo not given), the IC50 is > 79 µM (inactive).

For `Cc1ccc(C)c(S(=O)(=O)N2CCN(C(=O)c3cc4cc(C)ccc4nc3C)CC2)c1`, the IC50 is > 79 µM (inactive).

With `Cc1ccc(S(=O)(=O)N2CCN(C(=O)c3cc(=O)[nH]c4ccccc34)CC2)cc1C`, the IC50 was > 79 µM (inactive).

For `COc1cccc(NC(=O)CN(C)C(=O)c2cc(-c3cccs3)nn2-c2ccccc2)c1`, the IC50 is > 79 µM (inactive).

Consider `CCCn1c(SC(C(=O)Nc2cccc(OC)c2)c2ccccc2)nc2ccccc2c1=O` (stereo not given), for which the IC50 is > 79 µM (inactive).

Regarding `COc1ccc2c(c1OC)C(=O)N1c3ccccc3C(=O)N(c3ccccc3C)C21` (stereo not given), the IC50 was > 79 µM (inactive).

As for `COc1cccc(NC(=O)C(Sc2nc3ccccc3c(=O)n2CC(C)C)c2ccccc2)c1` (stereo not given), the IC50 is > 79 µM (inactive).

Consider `COc1ccc(-n2cc(-c3ccccc3)c3c(N4CCCC4)ncnc32)cc1`, for which the IC50 is > 79 µM (inactive).

Take `CCN(CC(=O)Nc1ccc(OC)cc1)C(=O)c1cc(-c2cccs2)nn1-c1ccccc1`: the IC50 is > 79 µM (inactive).

As for `COc1ccc(-n2cc(-c3ccccc3)c3c(N4CCCCC4)ncnc32)cc1`, the IC50 is > 79 µM (inactive).

Consider `COc1ccc2c(=O)c(C(=O)N3CCN(S(=O)(=O)c4c(C)cc(C)cc4C)CC3)c[nH]c2c1`, for which the IC50 is > 79 µM (inactive).

As to `COc1ccc2cc(C(=O)N3CCN(S(=O)(=O)c4ccc(C)cc4C)CC3)c(C)nc2c1`, the IC50 is > 79 µM (inactive).

As to `CCN(CC)S(=O)(=O)c1cc(C(=O)N2CCN(Cc3cccc4cccnc34)CC2)ccc1C`, the IC50 was > 79 µM (inactive).

As for `COc1ccc(-c2cc(C(=O)NCc3ccco3)c3ccccc3n2)cc1OC`, the IC50 is > 79 µM (inactive).

Consider `O=c1[nH]c2ccccc2cc1CN(Cc1ccco1)S(=O)(=O)c1ccc(F)cc1`, for which the IC50 is > 79 µM (inactive).

For the compound `Cc1ccc(S(=O)(=O)N(Cc2cccnc2)Cc2cc3ccccc3[nH]c2=O)cc1`, the IC50 was > 79 µM (inactive).

Consider `COCCNC(=O)C(c1ccc(O)cc1)N(C(=O)c1snc(C(N)=O)c1N)c1ccccc1F` (stereo not given), for which the IC50 is > 79 µM (inactive).

`CC(C)CCNC(=O)C(c1ccc(O)cc1)N(C(=O)c1snc(C(N)=O)c1N)c1ccccc1F` (stereo not given): the IC50 was > 79 µM (inactive).

As to `COc1cccc(CN(C)C(=O)c2cc(-c3ccccc3)nc3ccc(C)cc23)c1OC`, the IC50 was > 79 µM (inactive).

For the compound `Cc1ccc2cc(CN(C)S(=O)(=O)c3ccc(F)cc3)c(=O)[nH]c2c1`, the IC50 is > 79 µM (inactive).

In the case of `COc1ccccc1N1C(=O)c2ccccc2N2C(=O)c3c(ccc(OC)c3OC)C12` (stereo not given), the IC50 is 77.1 µM (inactive).

For the compound `CCCN(CC(=O)Nc1ccccc1OC)C(=O)c1cc(-c2cccs2)nn1-c1ccccc1`, the IC50 was > 79 µM (inactive).

Turning to `COc1cc(-c2cc(C(=O)Nc3cccc(C(C)=O)c3)c3ccccc3n2)cc(OC)c1OC`, the half-maximal inhibitory concentration (IC50) is 2.08 µM.

Take `COc1ccc2c(c1OC)C(=O)N1c3ccccc3C(=O)N(c3cccc(Br)c3)C21` (stereo not given): the concentration for half-maximal inhibition (IC50) was 1.89 µM.

For `Cc1ccc2cc(CN(Cc3cccnc3)S(=O)(=O)c3ccc(F)cc3)c(=O)[nH]c2c1`, the IC50 is > 79 µM (inactive).

Turning to `COc1ccc(N2C(=O)c3ccccc3N3C(=O)c4c(ccc(OC)c4OC)C23)cc1` (stereo not given), the IC50 was > 79 µM (inactive).

Turning to `COc1cccc(CN(C)C(=O)c2cc(-c3ccc(OC)c(OC)c3)nc3ccccc23)c1`, the IC50 is > 79 µM (inactive).

In the case of `COc1ccc(-n2cc(-c3ccccc3)c3c(NCc4ccccc4)ncnc32)cc1`, the IC50 was > 79 µM (inactive).

For `Cc1ccccc1N(C(=O)c1snc(C(N)=O)c1N)C(C(=O)NCc1ccc(F)cc1)c1ccc(O)cc1` (stereo not given), the IC50 is > 79 µM (inactive).

For `COc1ccc(S(=O)(=O)N(Cc2cccnc2)Cc2cc3ccccc3[nH]c2=O)cc1`, the IC50 is > 79 µM (inactive).

For the compound `Cc1ccc(NC(=O)CN(C)C(=O)c2cc(-c3cccs3)nn2-c2ccccc2)cc1`, the IC50 is > 79 µM (inactive).

Regarding `COc1ccc(-c2cc(C(=O)NCc3ccccc3)c3ccccc3n2)cc1OC`, the IC50 is > 79 µM (inactive).

On to `NC(=O)c1nsc(C(=O)N(c2cccc(F)c2)C(C(=O)NC2CCCC2)c2ccc(O)cc2)c1N` (stereo not given), for which the IC50 is > 79 µM (inactive).

Turning to `CCN(CC)C(=O)C(=O)c1c(-c2ccccc2)[nH]c2ccccc12`, the IC50 was > 79 µM (inactive).

Regarding `COc1ccc(-c2cc(C(=O)N(C)Cc3ccc(OC)c(OC)c3OC)c3ccccc3n2)cc1OC`, the IC50 was > 79 µM (inactive).

Regarding `O=C1c2ccccc2N2C(=O)c3ccccc3[C@H]2N1c1ccccc1`, the IC50 is > 79 µM (inactive).

As for `O=C(C(=O)N1CCCC1)c1c(-c2ccccc2)[nH]c2ccccc12`, the IC50 is > 79 µM (inactive).

Turning to `COc1ccc2c(c1OC)C(=O)N1c3ccccc3C(=O)N(c3ccc(F)cc3)C21` (stereo not given), the IC50 was 35.6 µM (inactive).

For the compound `O=C(C(=O)N1CCCCC1)c1c(-c2ccccc2)[nH]c2ccccc12`, the IC50 was > 79 µM (inactive).

Regarding `COc1ccc(-c2cc(C(=O)Nc3ccccc3)c3ccccc3n2)cc1OC`, the IC50 was > 79 µM (inactive).

Values taken from PubChem BioAssay AID623872 (Sanford-Burnham Center for Chemical Genomics, 2012).
